Test results from patent US6437138B1, “3-pyridyloxymethyl heterocyclic ether compounds useful in controlling chemical synaptic transmission” (priority 1996, dated 2002).

Legend:
[1] = target: neuronal nicotinic cholinergic channels in IMR-32 cells (Homo sapiens, UniProt P30926+P32297); assay: 86Rb+ efflux in IMR-32 cells (activation, or inhibition of efflux elicited by (S)-nicotine); type: cell-based; conditions: IMR-32, inhibition of the efflux elicited by 100 μM (S)-nicotine; for inhibition at 1 µM: single dose 1 μM; for inhibition at 10 µM: single dose 10 μM
Excerpt: For the purpose of directly evaluating the ability of test compounds to functionally activate or inhibit certain subtypes of neuronal nicotinic cholinergic channels, an assay to determine ^86Rb^+Efflux in IMR-32 cells was employed (Protocol B below).
B. Protocols for the Determination of Functional Effects of Cholinerzic Channel Receptor Ligands on Synaptic Transmission
Cells of the IMR-32 human neuroblastoma clonal cell line (ATCC, Rockville, Md.) were maintained in a log phase of growth according to established procedures (Lukas, 1993). Experimental cells were seeded at a density of 500,000 cells/ml into a 24-well tissue culture dish. Plated cells were allowed to proliferate for at least 48 hours before loading with 2 μCi/ml of ^86Rb^+ (35 Ci/mmol) overnight at 37° C. The ^86Rb^+ efflux assays were performed according to previously published protocols (Lukas, R. J., J. Pharmacol. Exp. Ther., 265: 294-302, 1993) except serum-free Dulbecco's Modified Eagle's Medium was used during the ^86Rb^+ loading, rinsing, and agonist-induced efflux steps.
EC50 data and maximal responses (reported as percent relative to the response elicited by 100 μM (S)-nicotine) are shown for selected compounds of the invention. The inhibition data (given for a larger number of compounds) reflect inhibition of the efflux elicited by 100 μM (S)-nicotine for either a single dose (% inhibition at 1 μM or at 10 μM) or over a range of doses (IC50 of inhibition). […] This finding is in agreement with the results of others who have linked dopamine release, which is dependent upon the ion flux in synaptic transmission, to binding at nicotinic receptors (cf., for example, Lippiello and Caldwell, U.S. Pat. No. 5,242,935, issued Sep. 7, 1993; Caldwell and Lippiello, U.S. Pat. No. 5,248,690, issued Sep. 28, 1993; and Wonnacott et al., Prog. Brain Res., 79: 157-163 (1989)).

[2] = target: neuronal nicotinic cholinergic channel receptors (Rattus norvegicus, UniProt P09483+P12390); conditions: displacement of [3H]-cytisine (1.25 nM), whole rat brain membranes; Ki from IC50 by Cheng and Prusoff correction; read-out: Binding Ki
Experimental: A. Protocol For Determination of Nicotinic Cholinergic Channel Receptor Binding Potencies of Ligands
Binding of [^3H]-cytisine ([^3H]-CYT) to nicotinic receptors was accomplished using crude synaptic membrane preparations from whole rat brain (Pabreza et al., Molecular Pharmacol, 1990, 39:9). Washed membranes were stored at −80° C. prior to use. Frozen aliquots were slowly thawed and resuspended in 20 volumes of buffer (containing: 120 mM NaCl, 5 mM KCl, 2 mM MgCl2, 2 mM CaCl2 and 50 mM Tris-Cl, pH 7.4 @ 4° C.). After centrifuging at 20,000×g for 15 minutes, the pellets were resuspended in 30 volumes of buffer. Homogenate (containing 125-150 μg protein) was added to triplicate tubes containing concentrations of test compound and [^3H]-CYT (1.25 nM) in a final volume of 500 μL. Samples were incubated for 60 minutes at 4° C., then rapidly filtered through Whatman GF/B filters presoaked in 0.5% polyethyleneimine using 3×4 mL of ice-cold buffer. The filters are counted in 4 mL of Ecolume® (ICN). Nonspecific binding was determined in the presence of […] (−)-nicotine and values were expressed as a percentage of total binding.

Sequence of neuronal nicotinic cholinergic channel receptors (P09483 31-630): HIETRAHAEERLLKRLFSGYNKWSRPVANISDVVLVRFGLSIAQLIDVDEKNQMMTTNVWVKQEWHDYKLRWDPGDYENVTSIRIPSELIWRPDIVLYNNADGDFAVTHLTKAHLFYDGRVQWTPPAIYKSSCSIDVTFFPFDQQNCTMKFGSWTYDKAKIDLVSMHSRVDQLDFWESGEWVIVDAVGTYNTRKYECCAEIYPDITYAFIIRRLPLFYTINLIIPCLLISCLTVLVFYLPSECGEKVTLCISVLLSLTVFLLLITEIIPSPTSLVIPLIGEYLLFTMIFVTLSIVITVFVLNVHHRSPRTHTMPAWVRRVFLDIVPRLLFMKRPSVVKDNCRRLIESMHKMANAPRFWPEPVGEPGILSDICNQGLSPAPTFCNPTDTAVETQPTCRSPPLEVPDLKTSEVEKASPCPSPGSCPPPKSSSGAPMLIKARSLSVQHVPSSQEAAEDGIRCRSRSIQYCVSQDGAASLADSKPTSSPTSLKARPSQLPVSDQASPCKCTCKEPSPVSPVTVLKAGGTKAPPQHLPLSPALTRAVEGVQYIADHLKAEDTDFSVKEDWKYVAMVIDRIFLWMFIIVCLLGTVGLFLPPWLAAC
Sequence of neuronal nicotinic cholinergic channel receptors (P12390 25-500): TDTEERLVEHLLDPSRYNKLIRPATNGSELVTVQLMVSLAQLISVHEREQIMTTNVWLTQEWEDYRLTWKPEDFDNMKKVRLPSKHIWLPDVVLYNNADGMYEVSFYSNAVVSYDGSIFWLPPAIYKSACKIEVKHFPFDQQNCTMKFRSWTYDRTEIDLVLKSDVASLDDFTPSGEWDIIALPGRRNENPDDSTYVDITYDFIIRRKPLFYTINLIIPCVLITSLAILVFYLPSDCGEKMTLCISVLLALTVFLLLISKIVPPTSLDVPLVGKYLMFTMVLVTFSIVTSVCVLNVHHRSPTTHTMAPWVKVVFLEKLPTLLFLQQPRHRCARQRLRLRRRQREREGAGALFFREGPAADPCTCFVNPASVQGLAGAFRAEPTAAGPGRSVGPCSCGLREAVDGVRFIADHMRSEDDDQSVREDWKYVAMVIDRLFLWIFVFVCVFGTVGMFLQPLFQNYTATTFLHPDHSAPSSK

CN1CCC[C@H]1COc1cncc(-c2cc3ccccc3n2C)c1.Cl [Example 36, 5-(1-Methyl-2-indolyl)-3-(1-methyl-2-(S)-pyrrolidinylmethoxy)pyridine Hydrochloride]
melting point: 195 to 197 °C
inhibition at 1 µM [1]: 28%
Ki [2]: 0.32 nM

CN1CCC[C@H]1COc1cncc(-c2ccc(Cl)cc2)c1.Cl.Cl [Example 38, 5-(4-Chlorophenyl)-3-(1-methyl-2-(S)-pyrrolidinylmethoxy)pyridine Dihydrochloride]
melting point: 224 to 226 °C
inhibition at 1 µM [1]: 29%
inhibition at 10 µM [1]: 100%
Ki [2]: 0.082 nM

CN1CCC[C@H]1COc1cncc(-c2ccc(Cl)cc2Cl)c1.Cl.Cl [Example 39, 5-(2,4-Dichlorophenyl)-3-(1-methyl-2-(S)-pyrrolidinylmethoxy)pyridine Dihydrochloride]
melting point: 176 to 178 °C
inhibition at 1 µM [1]: 52%
Ki [2]: 0.16 nM

CN1CCC[C@H]1COc1cncc(C#Cc2ccccc2)c1.Cl.Cl [Example 40, 5-(2-Phenylethynyl)-3-(1-methyl-2-(S)-pyrrolidinylmethoxy)pyridine Dihydrochloride]
melting point: 190 to 192 °C
inhibition at 1 µM [1]: 30%
inhibition at 10 µM [1]: 100%
Ki [2]: 0.16 nM

Cc1ccc(-c2cncc(OC[C@@H]3CCCN3C)c2)cc1.Cl.Cl [Example 41, 5-(4-Methylphenyl)-3-(1-methyl-2-(S)-pyrrolidinylmethoxy)pyridine Dihydrochloride]
melting point: 204 to 206 °C
inhibition at 1 µM [1]: 41%
inhibition at 10 µM [1]: 100%
Ki [2]: 0.13 nM

CN1CCC[C@H]1COc1cncc(-c2cccc(N)c2)c1.Cl.Cl [Example 43, 5-(3-Aminophenyl)-3-(1-methyl-2-(S)-pyrrolidinylmethoxy)pyridine Dihydrochloride]
melting point: 80 to 82 °C
inhibition at 1 µM [1]: 36%
Ki [2]: 0.43 nM
